Test system: isolated cardiac myocytes
Test: Ca2+ transients (indo-1 fluorescence ratio) in isolated cardiac myocytes in culture, with drug and 16 Hz alternating magnetic field
Assay type: cell-based, rat
Description: Cardiac myocytes were extracted in order to study intracellular free calcium ([Ca^2+]i) shifts as a result of exposure to alternating magnetic field. This was estimated from indo-1 fluorescence using the ratio method. […] The hearts were minced and then gently agitated in a solution of proteolytic enzymes, RDB. The RDB was diluted 1:100 in Ca^2+ and Mg^2+ free PBS at 25° C. for a few cycles of 10 minutes each, Dulbecco's modified Eagle's medium (DMEM) supplemented with inactivated 10% horse serum (Biological Industries, Kibbutz Beit Haemek, Israel), and 0.5% chick embryo extract was added to the supernatant suspensions containing dissociated cells. The mixture was centrifuged at 300 g for 5 minutes. The supernatant phase was discarded and the cells were resuspended in the same medium. The suspensions of the cells were diluted to 1.0×10^6 cells/ml and were placed in 35-mm plastic culture dishes on collagen/gelatin coated cover glasses. The culture was incubated in a humidified atmosphere of 5% CO2, 95% air at 37° C. All experiments were performed at day 4 in culture. In a second set of experiments the specificity of the myocyte ion channels (KATP) was tested by inducing exposure alternating magnetic field of 16 Hz, that were delivered for 10 minutes of base line (n=10). Following baseline recording, the channels were blocked by the addition to the dish 5 μM of Glibenclamide and alternating magnetic field was delivered for an additional 20 minutes. In the third setup of the experiment the amount of 5 μM of Glibenclamide was primarily added (n=10), to be followed by exposure to alternating magnetic field of 20 min. In the fourth phase of the experimental setup 3 μM of Nicorandil, a potassium channel opener (KCO) were added (n=10), following 10 minutes, alternating magnetic field was exposure was introduced for 20 minutes. In the fifth phase of the experiment alternating magnetic field was applied for 20 minutes followed by introduction of 3 μM of Nicorandil (n=5). Intracellular free calcium concentration [Ca^2+], was estimated from indo-1 fluorescence using the ratio method previously described before by Grynkiewicz et al (1985). Following incubation, the cells were rinsed twice with glucose enriched PBS and transferred to a chamber on the stage of a Zeiss inverted epifluorescent microscope. Indo-1-AM was excited at 355 nm and the emitted light was then split by a dichroic mirror to two photomultipliers, with input filters at 405 and 495 nm. The fluorescence ratio of 405/495 nm, which is proportional to [Ca2+] was fed into a computer program. The time integral of Ca^2+ Influx was determined as area under the curve via a program, which gives the integral during any specified time window. From this value the baseline offset, measured at the systolic and diastolic phase, were subtracted. Baseline data from calcium transients were normalized to 100 percent and all values were presented as percent change from baseline. Mean and SD were calculated. A P≦0.05 was considered statistically significant.

SMILES	change of amplitude of Ca2+ transients (widening) with glibenclamide (5 μM Glibenclamide added, before magnetic field, percent change from baseline, n=10, FIG. 8B)	change of amplitude of Ca2+ transients (narrowing) with glibenclamide following 20 minutes of alternating magnetic field (5 μM Glibenclamide then 20 min field of 16 Hz, 80 nT, n=10, FIG. 8C)	effect on calcium ions efflux from myocytes in cultures following exposure to 16 Hz magnetic field (low intensities of 16 Hz magnetic field, KATP channel blocker)	change of amplitude of Ca2+ transients (narrowing) with nicorandil (3 μM Nicorandil added, before magnetic field, percent change from baseline, FIG. 9B)	change of amplitude of Ca2+ transients (narrowing) with nicorandil following 20 minutes of alternating magnetic field (3 μM Nicorandil then 20 min field of 16 Hz, 80 nT, n=4, FIG. 9C)	combination of magnetic field exposure and KCO administration (nicorandil plus alternating magnetic field, 15.95 Hz, FIGS. 9A-C)
COc1ccc(Cl)cc1C(=O)NCCc1ccc(S(=O)(=O)NC(=O)NC2CCCCC2)cc1 [glibenclamide]	+30%±9%	−24%±6%	counteracting effect	–	–	–
O=C(NCCO[N+](=O)[O-])c1cccnc1 [nicorandil]	–	–	–	−58%±7%	−63%±3%	synergistic effect

— US20100130945A1, “TREATMENT OF TISSUE VIA APPLICATION OF MAGNETIC FIELD” (priority 2006, published 2010)
